According to patent EP4488270A1, “TRIAZOLE COMPOUNDS FOR THE CONTROL OF INVERTEBRATE PESTS” (priority 2023, dated 2025):

What was measured:
Type in all cases: in vivo
[1] = test system: tobacco budworm (Heliothis virescens); experiment: Tobacco budworm test, insect diet with eggs in 96-well microtiter plates; details: 120 h, egg and larval mortality, 5 days, about 28 ± 1°C, read-out: mortality in comparison with untreated controls
Protocol: B.2 Tobacco budworm (Heliothis virescens)
For evaluating control of tobacco budworm (Heliothis virescens), the test unit consisted of 96-well-microtiter plates containing an insect diet and 15-25 H. virescens eggs.
The compounds were formulated using a solution containing 75% v/v water and 25% v/v DMSO. Different concentrations of formulated compounds were sprayed onto the insect diet at 10µl, using a custom-built micro atomizer, at two replications.
After application, microtiter plates were incubated at about 28 ± 1°C and about 80 ± 5 % relative humidity for 5 days. Egg and larval mortality was then visually assessed.

[2] = test system: yellow fever mosquito (Aedes aegypti); experiment: whole plant or invertebrate; details: 48 h, larval mortality, 2 days, 28 ± 1°C, read-out: mortality in comparison with untreated controls
Protocol: B.5 Yellow fever mosquito (Aedes aegypti)
For evaluating control of yellow fever mosquito (Aedes aegypti) the test unit consisted of 96-well-microtiter plates containing 200µl of tap water per well and 5-15 freshly hatched A. aegypti larvae.
The active compounds were formulated using a solution containing 75% (v/v) water and 25% (v/v) DMSO. Different concentrations of formulated compounds or mixtures were sprayed onto the insect diet at 2.5µl, using a custom-built micro atomizer, at two replications.
After application, microtiter plates were incubated at 28 ± 1°C, 80 ± 5 % RH for 2 days. Larval mortality was then visually assessed.

[3] = test system: Orchid thrips (Dichromothrips corbetti); experiment: Orchid thrips floral-immersion test; details: adult thrips on dipped orchid petals, 72 hours after treatment, read-out: mortality in comparison with untreated controls
Protocol: B.6 Orchid thrips (Dichromothrips corbetti)
Dichromothrips corbetti adults used for bioassay are obtained from a colony maintained continuously under laboratory conditions. For testing purposes, the test compound is diluted in a 1:1 mixture of acetone:water (vol:vol), plus Kinetic at a rate of 0.01% v/v.
Thrips potency of each compound is evaluated by using a floral-immersion technique. Each orchid petal is dipped into treatment solution and allowed to dry in Petri dishes. Treated petals are placed into individual re-sealable plastic along with about 20 adult thrips. All test arenas are held under dark condition and a temperature of about 28°C for duration of the assay. The percent mortality is recorded 72 hours after treatment.

[4] = test system: green peach aphid (Myzus persicae); experiment: Green peach aphid systemic test, artificial diet under membrane in 96-well microtiter plates; details: 72 h, adult aphids on treated diet, 3 days, about 23 ± 1°C, read-out: mortality in comparison with untreated controls
Description: B.1 Green Peach Aphid (Myzus persicae)
For evaluating control of green peach aphid (Myzus persicae) through systemic means, the test unit consisted of 96-well-microtiter plates containing liquid artificial diet under an artificial mem brane.
The compounds were formulated using a solution containing 75% v/v water and 25% v/v DMSO. Different concentrations of formulated compounds were pipetted into the aphid diet, using a custom built pipetter, at two replications.
After application, 5 - 8 adult aphids were placed on the artificial membrane inside the microtiter plate wells. The aphids were then allowed to suck on the treated aphid diet and incubated at about 23 ± 1°C and about 50 ± 5 % relative humidity for 3 days. Aphid mortality and fecundity was then visually assessed.

[5] = test system: boll weevil (Anthonomus grandis); experiment: Boll weevil test, insect diet with eggs in 96-well microtiter plates; details: 120 h, read-out: mortality in comparison with untreated controls
Protocol: B.3 Boll weevil (Anthonomus grandis)
For evaluating control of boll weevil (Anthonomus grandis), the test unit consisted of 96-well-microtiter plates containing an insect diet and 5-10 A. grandis eggs.
The compounds were formulated using a solution containing 75% v/v water and 25% v/v DMSO. Different concentrations of formulated compounds were sprayed onto the insect diet at 5µl, using a custom-built micro atomizer, at two replications.
After application, microtiter plates were incubated at about 25 ± 1°C and about 75 ± 5 % relative humidity for 5 days. Egg and larval mortality was then visually assessed.

[6] = test system: Southern armyworm (Spodoptera eridania), 2nd instar larvae; experiment: Southern armyworm foliar spray test on lima bean plants; details: 96 h, 4 days after treatment, read-out: mortality in comparison with untreated controls
Protocol: B.4. Southern armyworm (Spodoptera eridania), 2nd instar larvae
The active compounds were formulated by a Tecan liquid handler in 100% cyclohexanone as a 10,000-ppm solution supplied in tubes. The 10,000-ppm solution was serially diluted in 100% cyclohexanone to make interim solutions. These served as stock solutions for which final dilutions were made by the Tecan in 50% acetone:50% water (v/v) into 10 or 20ml glass vials. A non-ionic surfactant (Kinetic®) was included in the solution at a volume of 0.01% (v/v). The vials were then inserted into an automated electrostatic sprayer equipped with an atomizing nozzle for application to plants/insects. Lima bean plants (variety Sieva) were grown 2 plants to a pot and selected for treatment at the 1st true leaf stage. Test solutions were sprayed onto the foliage by an automated electrostatic plant sprayer equipped with an atomizing spray nozzle. The plants were dried in the sprayer fume hood and then removed from the sprayer. Each pot was placed into perforated plastic bags with a zip closure. Ten to 11 armyworm larvae were placed into the bag and the bags zipped closed. […] Mortality and reduced feeding were assessed 4 days after treatment, compared to untreated control plants.

CC(NC(=O)c1cc(C(F)(F)F)cc(C(F)(F)F)c1)c1nccnc1-c1ncn(C2(C(N)=O)CC2)n1 (stereo not drawn) [I-2, N-[1-[3-[1-(1-carbamoylcyclopropyl)-1,2,4-triazol-3-yl]pyrazin-2-yl]ethyl]-3,5-bis(trifluoromethyl)benzamide]
≥ 75%: mortality at 2500 ppm [1] | mortality at 2500 ppm [2] | mortality at 300 ppm [3] | mortality at 2500 ppm [4] | mortality at 2500 ppm [5] | mortality at 300 ppm [6]

CC(NC(=O)c1cc(C(F)(F)F)cc(C(F)(F)F)c1)c1nccnc1-c1ncn(C2(C#N)CC2)n1 (stereo not drawn) [I-3, N-[1-[3-[1-(1-cyanocyclopropyl)-1,2,4-triazol-3-yl]pyrazin-2-yl]ethyl]-3,5-bis(trifluoromethyl)benzamide]
≥ 75%: mortality at 2500 ppm [1] | mortality at 2500 ppm [2] | mortality at 300 ppm [3] | mortality at 2500 ppm [4] | mortality at 2500 ppm [5] | mortality at 300 ppm [6]
